This is an account of results in patent US20220105157A1, “Compositions and Methods for Promoting Angiogenesis in the Eye” (The Regents of the University of California, priority 2019, published 2022).

In the test the test system is retinal vasculature of mouse eyes. Put plainly: Intravitreal injection of recombinant proteins in mouse eyes, retinal vessel density. The test is classed as in vivo. The following applies: for retinal microvessel density (CD31): 6-8 week old mice, intravitreal. The protocol:
Male C57BL/6J mice (6-8 week and P5) were anesthetized with ketamine/Xylazine cocktail. The indicated amounts of recombinant LIF (Sigma, CAT #SRP9001) in 1 μl of PBS and PBS vehicle control were injected intravitreally with a 33-gauge Hamilton syringe. Seven (for adult mice) or 3 (for neonatal mice) days after injection, animals were euthanized, eyes were then enucleated and fixed in 4% paraformaldehyde (PFA) for 15 min. Choroid-sclera complexes and retinas were separated and anti-CD31 immunofluorescence (IF) or lectin labeling was performed to evidence the vasculature by whole mount staining of both retina and choroidal tissues or flat-mounts of retina. For CD31 IF, rat anti-mouse antibody (BD Biosciences, CAT #550274) was diluted 1:100 and incubated overnight at 4° C. After 4-hour incubation with the Alexa Fluor-488-conjugated anti-rat antibody (Life Technologies, CAT #A11006), whole mounts were imaged via the 488 nm channel using Keyence Microscope BZ-X710 (Keyence Corporation, Osaka, Japan) or A1R Confocal STORM super-resolution system (Nikon). For lectin staining, Dylight-488-labeled lectin (Vector Laboratories, CAT #DL-1174) was diluted at 1:200 and images were obtained using A1R Confocal STORM super-resolution system (Nikon). For Quantification of vascular density in choroids and retina was carried out by Image J. Student's t test was used for statistical analysis. Each experiment was repeated three times with similar results each time, and each treatment group consists of 4 or 5 individual samples in every experiment. All animal experimental procedures were approved by the Institutional Animal Care and Use Committee (IACUC) of the University of California San Diego and conducted in accordance with the guidelines of the Animal Care Program (ACP).
Optical coherence tomography angiography (OCTA) imaging of the retina of adult mice was performed 7 days after LIF injection, using a 1300 nm optical coherence tomography (OCT) system developed by Dr. R. K. Wang's group at University of Washington Seattle, in agreement with previously described methodology (66). Briefly, the swept laser operated in single longitude mode with a 90 nm bandwidth centered at 1300 nm and 200 kHz A-line rate was used to scan mouse retina and to generate images of vasculature in a field of view of 1.5×1.5 mm^2. 2500 B-frames were captured at 500 cross-sections with five repeated B-frames at each cross-section. To quantify the retinal vascular density, retinal and choroidal layers in 3D structure OCT scans were separated by the hyper-reflecting retinal pigment epithelium (RPE). Then the en face maximum intensity projection was generated. The vessel density was then determined by calculating the percentages of vessel-covered area in total area of view using the ImageJ software.

With “LIF: recombinant human leukemia inhibitory factor, a member of the IL-6 family of cytokines”, the “retinal vascular density in neonatal mice (lectin)” value (5-day postnatal (P5) mice, intravitreal LIF 50 ng, three days after the injection) is listed as “significant increase in vascular density”. For the same substance, the “retinal microvessel density (CD31)” value runs as follows: (10 ng per eye, 7 days) “significantly increased”; (100 ng, 7 days) “less effective”. Besides, the “vessel density in retina, CD31 immunofluorescence in cross sections of mouse eyes” value (adult mice, intravitreal LIF 10 ng, 7 days) is reported as “increased vessel density”. Further, the “retinal vessel density by OCTA” value (adult mice, intravitreal LIF 50 ng, 7 days) was “significant increases”.
